Test results published in patent US20160045505A1, “COMPOUNDS AND COMPOSITIONS FOR THE TREATMENT OF PARASITIC DISEASES” (NOVARTIS AG, priority 2013, published 2016).
Where two headings read alike, the source gives them in different places.

Legend:
[1] = test system: Trypanosoma brucei Lister 427 strain, bloodstream form; experiment: Assay for proliferation of kinetoplastid parasite Trypanosoma brucei (Cell Titer Glo, 48 hours); assay type: cell-based; settings: read-out: T. brucei EC50
How it was run: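 Bloodstream-form T. brucei Lister 427 in HMI-9 medium was exposed to compound (DMSO vehicle) for 48 hours at 37° C, 5% CO2. Parasite growth was read as ATP by CellTiter-Glo luminescence, with EC50 calculated from percent inhibition.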

[2] = test system: Trypanosoma cruzi amastigotes (Tulahuen strain expressing Lac-Z) cultured in 3T3 fibroblast cells; experiment: microbe, parasite or virus in culture; assay type: cell-based; settings: Trypanosoma cruzi, TULAHUEN, Fibroblast, T. cruzi amastigotes in 3T3 fibroblast cells, read-out: T cruzi EC50
[3] = test system: L. donovani HU3 strain in mouse peritoneal macrophages; experiment: Assay for proliferation of Leishmania parasites in infected mouse peritoneal macrophages (SybrGreen staining, high-content imaging, 5 days); assay type: cell-based, Leishmania donovani; settings: L. donovani in mouse peritoneal macrophages, read-out: L. donovani Macrophage EC50
[4] = test system: Leishmania donovani axenic amastigote parasites; experiment: Leishmania donovani axenic amastigote proliferation assay (Cell TiterGlo luminescence, 2 day incubation); assay type: cell-based; settings: read-out: L. donovani amastigotes EC50
[5] = Trypanosoma brucei, T. brucei Lister 427 bloodstream form, inhibition of proliferation
[6] = Leishmania donovani, Peritoneal macrophage, inhibition of proliferation
[7] = Leishmania donovani, axenic amastigotes, inhibition of proliferation
[8] = Trypanosoma brucei, T. brucei Lister 427 bloodstream form
[9] = Leishmania donovani, Peritoneal macrophage
[10] = Leishmania donovani, L. donovani axenic amastigotes

| SMILES | EC50 [1, 5] [nM] | EC50 ([2]; inhibition of proliferation) [nM] | EC50 [3, 6] [nM] | EC50 [4, 7] [nM] | EC50 [1, 8] [nM] | EC50 [2] [nM] | EC50 [3, 9] [nM] | EC50 [4, 10] [nM] | other results |
| --- | --- | --- | --- | --- | --- | --- | --- | --- | --- |
| CC1(C(=O)Nc2cnc3nc(-c4cc(NC(=O)N5CCCC5)ccc4F)cn3c2)CC1 [Compound 133] | 19 | 1840 | 607 | 97 |  |  |  |  |  |
| COCCN(C(=O)OC(C)C)c1cnc2nc(-c3cc(NC(=O)c4oc(C)nc4C)ccc3F)cn2c1 [Compound 555] |  |  |  |  | 1570 | 1320 | 5470 | 3110 |  |
| Cc1nc(C)c(C(=O)Nc2ccc(F)c(-c3cn4cc(-c5cnn(C)c5)cnc4n3)c2)o1 [Compound 389] |  |  |  |  | 158 | 254 | 330 | 97 |  |
| COc1cccnc1Nc1ccc(F)c(-c2cn3cc(NC(=O)OC(C)C)cnc3n2)c1 [Compound 498] |  |  |  |  | 478 | 1340 | 28000 | 849 |  |
| CC(C)OC(=O)Nc1cnc2nc(-c3cc(NC(=O)N4CCC[C@@H]4C(F)(F)F)ccc3Cl)cn2c1 [Compound 260] | > 50000 | 4550 | 3830 | > 25000 |  |  |  |  |  |
| Cc1nc(C)c(C(=O)Nc2ccc(F)c(-c3cn4cc(NC5=NCC(C)(C)O5)cnc4n3)c2)o1 [Compound 507] |  |  |  |  | 1260 | 9920 | 5800 | 1850 |  |
| Cc1nc(C)c(C(=O)Nc2ccc(F)c(-c3cn4cc(NCc5c[nH]cn5)cnc4n3)c2)o1 [Compound 480] |  |  |  |  | 8420 | > 20000 | > 50000 | > 22300 |  |
| CON(C)C(=O)Nc1ccc(Cl)c(-c2cn3cc(NC(=O)OC(C)C)cnc3n2)c1 [Compound 214] | 40 | 154 | 785 | 90 |  |  |  |  |  |
| Cc1nc(C)c(C(=O)Nc2ccc(F)c(-c3cn4cc(-c5ccccc5F)cnc4n3)c2)o1 [Compound 391] |  |  |  |  | 53 | 16 | 129 | 56 |  |
| Cc1nc(C)c(C(=O)Nc2ccc(F)c(-c3cn4cc(NC(=O)C5CCOC(C)(C)C5)cnc4n3)c2)o1 (stereo not shown) [Compound 159] | 1470 | 9950 | 10100 | 2890 |  |  |  |  |  |
| CC(C)OC(=O)Nc1cnc2nc(-c3cccc(NC(=O)c4cnco4)c3)cn2c1 [Compound 203] | 1160 | 10600 | 13800 | 970 |  |  |  |  |  |
| CN(C)c1cnc2nc(-c3cc(NC(=O)N4CC[C@@H](F)C4)ccc3F)cn2c1 [Compound 468] |  |  |  |  | 15 | 146 | 230 | 87 |  |
| O=C(Nc1cnc2nc(-c3cc(NC(=O)N4CCCC4)ccc3F)cn2c1)[C@@H]1CNCCO1 [Compound 130] | 4660 | 7120 | 26600 | 13900 |  |  |  |  |  |
| Cc1nc(C)c(C(=O)Nc2ccc(F)c(-c3cn4cc(-c5cnc(C(C)C)cn5)cnc4n3)c2)o1 [Compound 446] |  |  |  |  | 161 | 122 | 146 | 33 |  |
| Cc1nc(C)c(C(=O)Nc2ccc(F)c(-c3cn4cc(NC(=O)C5CCCCO5)cnc4n3)c2)o1 (single isomer, unassigned) [Compound 184] |  | 565 |  |  |  |  |  |  | EC50 ([1]; T. brucei Lister 427 bloodstream form, inhibition of proliferation): 175 nM; EC50 ([3]; inhibition of proliferation): 333 nM; EC50 ([4]; axenic amastigotes, inhibition of proliferation): 146 nM |
| Cc1nc(C)c(C(=O)Nc2ccc(F)c(-c3cn4cc(NC(=O)[C@H]5NCC[C@@H]5O)cnc4n3)c2)o1 [Compound 160] | 28700 | > 20000 | > 50000 | > 25000 |  |  |  |  |  |
| Cc1nc(C)c(C(=O)Nc2ccc(F)c(-c3cn4cc(NC(=O)c5ccc(CN(C)C)cn5)cnc4n3)c2)o1 [Compound 195] | 463 | 2040 | 5330 | 5640 |  |  |  |  |  |

| SMILES | EC50 [1, 5] [nM] | EC50 ([2]; inhibition of proliferation) [nM] | EC50 [3, 6] [nM] | EC50 [4, 7] [nM] | EC50 [1, 8] [nM] | EC50 [2] [nM] | EC50 [3, 9] [nM] | EC50 [4, 10] [nM] | other results |
| --- | --- | --- | --- | --- | --- | --- | --- | --- | --- |
| CCC(C)OC(=O)Nc1cnc2nc(-c3cc(NC(=O)c4oc(C)nc4C)ccc3F)cn2c1 (stereo not shown) [Compound 309] | 132 | 275 | 204 | 109 |  |  |  |  |  |
| Cc1nc(C)c(C(=O)Nc2ccc(F)c(-c3cn4cc(C(F)(F)F)cnc4n3)c2)o1 [Compound 200] | 164 | 147 | 631 | 219 |  |  |  |  |  |
| CN(C)C(=O)Nc1ccc(F)c(-c2cn3cc(Cl)cnc3n2)c1 [Compound 225] | 468 | 1200 | 8250 | 1610 |  |  |  |  |  |
| Cc1nc(C)c(C(=O)Nc2ccc(F)c(-c3cn4cc(-c5ccccc5N)cnc4n3)c2)o1 [Compound 372] |  |  |  |  | 80 | 95 | 242 | 221 |  |
| Cc1nc(C)c(C(=O)Nc2ccc(F)c(-c3cn4cc(-c5ccccc5S(C)(=O)=O)cnc4n3)c2)o1 [Compound 397] |  |  |  |  | 68 | 200 | 448 | 337 |  |
| Cc1nc(C)c(C(=O)Nc2ccc(F)c(-c3cn4cc(C5=CCCO5)cnc4n3)c2)o1 [Compound 371] | 1470 | 465 | 2300 | 1650 |  |  |  |  |  |
| Cc1cc(C(=O)Nc2ccc(F)c(-c3cn4cc(NC(=O)OC(C)C)cnc4n3)c2)on1 [Compound 112] | 1090 | 1270 | 16600 | 2100 |  |  |  |  |  |
| Cc1nc(C)c(C(=O)Nc2ccc(F)c(-c3cn4cc(-c5cccc(F)n5)cnc4n3)c2)o1 [Compound 434] |  |  |  |  | 160 | 42 | 924 | 107 |  |
| Cc1nc(C)c(C(=O)Nc2ccc(F)c(-c3cn4cc(C5=CC(C)(C)OC(C)(C)C5)cnc4n3)c2)o1 [Compound 379] |  |  |  |  | 1430 | 683 | 1680 | 528 |  |
| Cc1nc(C)c(C(=O)Nc2ccc(F)c(-c3cn4cc(OCc5ccccn5)cnc4n3)c2)o1 [Compound 611] |  |  |  |  | 611 | 1130 | 1550 | 645 |  |
| Cc1nc(C)c(C(=O)Nc2ccc(F)c(-c3cn4cc(NC(=O)C5CCCCN5C)cnc4n3)c2)o1 (stereo not shown) [Compound 165] | 1450 | 5180 | > 50000 | > 25000 |  |  |  |  |  |
| Cc1nc(C)c(C(=O)Nc2ccc(F)c(-c3cn4cc(N5CCCC5)cnc4n3)c2)o1 [Compound 493] |  |  |  |  | 40 | 31 | 192 | 260 |  |
| CC(C)CN(C)C(=O)Nc1ccc(Cl)c(-c2cn3cc(NC(=O)OC(C)C)cnc3n2)c1 [Compound 249] |  | 1340 | 5550 | 3370 |  |  |  |  | EC50 ([1]; Trypanosoma brucei): 4070 nM |
| O=C(Nc1ccc(F)c(-c2cn3cc(-c4cccnc4)cnc3n2)c1)N1CC(F)(F)C1 [Compound 402] |  |  |  |  | 11 | 251 | 285 | 69 |  |
| Cc1ccc(C(=O)Nc2ccc(F)c(-c3cn4cc(NC(=O)OC(C)C)cnc4n3)c2)s1 [Compound 88] |  | 1170 | 19700 | 5370 |  |  |  |  | EC50 ([1]; Trypanosoma brucei): 1180 nM |
| CC(C)OC(=O)Nc1cnc2nc(-c3cc(NC(=O)c4cocn4)ccc3Cl)cn2c1 [Compound 43] | 474 | 409 | 3910 | 782 |  |  |  |  |  |
| Cc1nc(C)c(C(=O)Nc2ccc(F)c(-c3cn4cc(NC(=O)C5(C)COC5)cnc4n3)c2)o1 [Compound 192] | 1140 | > 20000 | > 25100 | 3240 |  |  |  |  |  |
